Assay results from patent publication US11793782B2, “Therapeutic agents for neurodegenerative diseases” (priority 2017, dated 2023).

Legend:
MSA-P patients = test: Case studies, multiple system atrophy Parkinson type (MSA-P) patients; type: in vivo, human; settings: MSA-P Patient 1; 6 weeks later
[1] = test system: Mucolipidosis Type IIIA (MLIIIA) patient fibroblasts; test: Lysosomal volume via LysoTracker, MLIIIA fibroblasts; type: cell-based, human; settings: 1 mM, 6 days
[2] = test system: ataxia telangiectasia patients; test: Case studies, ataxia telangiectasia patients (SARA, SCAFI, video-oculography); type: in vivo, human
Description: For example, to evaluate overall neurological status, mDRS, a four-domain scale (ambulation, manipulation, language and swallowing), may be applied. Cerebellar function may be evaluated using SARA, an eight-item clinical rating scale (gait, stance, sitting, speech, fine motor function and taxis; range 0-40, where 0 is the best neurological status and 40 the worst), and SCAFI, comprising the 8-m-Walking-Time (8 MW; performed by having patients walking twice as quickly as possible from one line to another excluding turning), 9-Hole-Peg-Test (9HPT) and the number of “PATA” repetitions over 10 s. Subjective impairment and quality of life may be evaluated using the EQ-5D-5L questionnaire and VAS. To assess ocular motor function, 3-dimensional videooculography (EyeSeeCam) may be used to measure the peak velocity of saccades, gain of smooth pursuit, peak slow phase velocity of gaze-evoked nystagmus (gaze-holding function), peak slow phase velocity of optokinetic nystagmus, and gain of horizontal vestibulo-ocular reflex. To evaluate the cognitive state, WAIS-R or WISC-IV, and MoCA, assessing different cognitive domains, including attention and concentration, executive functions, memory, language, visuoconstructional skills, conceptual thinking, calculations, and orientation with a maximum of 30 points and a cut-off score of 26, may be used. The skilled person will know how to perform these and other such tests.
After one month of treatment, the patient was re-evaluated. […] Examination indicated a Scale for Assessment and Rating of Ataxia (SARA) score of 15.5/40. Results from the patient's Spinocerebellar Ataxia Functional Index (SCAFI) analysis were: • Mean 8-meters Walking Test (8 MW): 18.5 s • MW 9-Hole Pegboard Test Dominant (9HPTD) (right): 77.9 s • MW 9-Hole Pegboard Test Non-Dominant (9HPTND): 101.3 s • MW PATA Word Test: 13 • Visual analog scale (as evaluated by the patient): 85
After one month of treatment, the patient was re-evaluated. […] Examination indicated a Scale for Assessment and Rating of Ataxia (SARA) score of 23.5/40.
After slightly over 7 months of treatment, the patient was re-evaluated. […] Examination indicated a Scale for Assessment and Rating of Ataxia (SARA) score of 21.5/40.
After slightly over 1 month of treatment, the patient was re-evaluated. […] The patient also reported that drinking was easier and no longer needed a straw. […] Examination indicated a Scale for Assessment and Rating of Ataxia (SARA) score of 18.5/40.
After about 1 month of treatment, the patient was re-evaluated. […] On medication, they were able to walk with only holding the caregiver's hand.
The patient was evaluated after one month and six months of treatment, respectively. […] The patient, however, was suffering from anxiety, which would be expected to negatively influence the response.

[3] = ataxia telangiectasia Patient 1, after one month
[4] = ataxia telangiectasia Patient 1, after one month, Center
[5] = ataxia telangiectasia Patient 1, after one month, Down
[6] = ataxia telangiectasia Patient 1, after one month, Left
[7] = ataxia telangiectasia Patient 1, after one month, Right
[8] = ataxia telangiectasia Patient 1, after one month, Up
[9] = ataxia telangiectasia Patient 2, after one month
[10] = ataxia telangiectasia Patient 2, after one month, Center
[11] = ataxia telangiectasia Patient 2, after one month, Down
[12] = ataxia telangiectasia Patient 2, after one month, Left
[13] = ataxia telangiectasia Patient 2, after one month, Right
[14] = ataxia telangiectasia Patient 2, after one month, Up
[15] = ataxia telangiectasia Patient 3, after slightly over 7 months
[16] = ataxia telangiectasia Patient 3, after slightly over 7 months, Center
[17] = ataxia telangiectasia Patient 3, after slightly over 7 months, Down
[18] = ataxia telangiectasia Patient 3, after slightly over 7 months, Left
[19] = ataxia telangiectasia Patient 3, after slightly over 7 months, Right
[20] = ataxia telangiectasia Patient 4, after slightly over 1 month

Structure (SMILES): CC(=O)NC(CC(C)C)C(=O)O (racemic) [acetyl-DL-leucine]
- Symptoms after stopping medication (MSA-P patients): did not report deterioration of symptoms
- LysoTracker fluorescence relative to untreated disease fibroblasts [1]: trend in reducing LysoTracker fluorescence
- Caregivers' report [2, 3]: improvement of speech and gait
- Video-oculography (summary) [2, 3]: significant improvement of fixation stability and decrease of intensity of downbeat-nystagmus
- Slow phase velocity of the gaze-holding nystagmus, Horizontal [2, 4]: 0.4
- Slow phase velocity of the gaze-holding nystagmus, Vertical [2, 4]: 4.77
- Slow phase velocity of the gaze-holding nystagmus, Horizontal [2, 5]: −0.44
- Slow phase velocity of the gaze-holding nystagmus, Vertical [2, 5]: 5.29
- Slow phase velocity of the gaze-holding nystagmus, Horizontal [2, 6]: 8.2
- Slow phase velocity of the gaze-holding nystagmus, Vertical [2, 6]: 8.85
- Slow phase velocity of the gaze-holding nystagmus, Horizontal [2, 7]: −0.95
- Slow phase velocity of the gaze-holding nystagmus, Vertical [2, 7]: 4.83
- Slow phase velocity of the gaze-holding nystagmus, Horizontal [2, 8]: 0.72
- Slow phase velocity of the gaze-holding nystagmus, Vertical [2, 8]: 2.67
- PATA Word Test ([2]; ataxia telangiectasia Patient 1, after one month, before 12.5): 13
- Mean 8-meters Walking Test (8 MW) ([2]; ataxia telangiectasia Patient 1, after one month, before 21.8 s): 18.5 s
- 9-Hole Pegboard Test Dominant (9HPTD) (right) ([2]; ataxia telangiectasia Patient 1, after one month, before 90.2 s): 77.9 s
- Visual analog scale (as evaluated by the patient) ([2]; ataxia telangiectasia Patient 1, after one month, before 99): 85
- 9-Hole Pegboard Test Non-Dominant (9HPTND) ([2]; ataxia telangiectasia Patient 1, after one month, before 125.8 s): 101.3 s
- Caregivers' report [2, 9]: improvement of fine motor function, hand tremor, and speech
- Mean 8-meters Walking Test (8 MW) [2, 9]: not able to perform without support
- Video-oculography (summary) [2, 9]: improvement of fixation stability and significant improvement of downbeat-nystagmus intensity
- Slow phase velocity of the gaze-holding nystagmus, Horizontal [2, 10]: −1.45
- Slow phase velocity of the gaze-holding nystagmus, Vertical [2, 10]: 5.6
- Slow phase velocity of the gaze-holding nystagmus, Horizontal [2, 11]: −2.5
- Slow phase velocity of the gaze-holding nystagmus, Vertical [2, 11]: 4.69
- Slow phase velocity of the gaze-holding nystagmus, Horizontal [2, 12]: 3.58
- Slow phase velocity of the gaze-holding nystagmus, Vertical [2, 12]: 7
- Slow phase velocity of the gaze-holding nystagmus, Horizontal [2, 13]: −3.45
- Slow phase velocity of the gaze-holding nystagmus, Vertical [2, 13]: 6.56
- Slow phase velocity of the gaze-holding nystagmus, Horizontal [2, 14]: −0.51
- Slow phase velocity of the gaze-holding nystagmus, Vertical [2, 14]: 3.15
- PATA Word Test ([2]; ataxia telangiectasia Patient 2, after one month, before 13.5): 14
- Visual analog scale (as evaluated by the patient) ([2]; ataxia telangiectasia Patient 2, after one month, before 45): 80
- 9-Hole Pegboard Test Non-Dominant (9HPTND) ([2]; ataxia telangiectasia Patient 2, after one month, before 299.2 s): 300 s
- 9-Hole Pegboard Test Dominant (9HPTD) (right) ([2]; ataxia telangiectasia Patient 2, after one month, before 300 s): 300 s
- Caregivers' and patient's report [2, 15]: general improvement of well-being
- Mean 8-meters Walking Test (8 MW) [2, 15]: not able to perform
- Video-oculography (summary) [2, 15]: significant improvement of fixation stability and decrease of intensity of gaze-holding nystagmus at all positions
- Slow phase velocity of the gaze-holding nystagmus, Horizontal [2, 16]: −0.1 °/s
- Slow phase velocity of the gaze-holding nystagmus, Vertical [2, 16]: 0.4 °/s
- Slow phase velocity of the gaze-holding nystagmus, Horizontal [2, 17]: −0.6 °/s
- Slow phase velocity of the gaze-holding nystagmus, Vertical [2, 17]: 1.2 °/s
- Slow phase velocity of the gaze-holding nystagmus, Horizontal [2, 18]: 1.7 °/s
- Slow phase velocity of the gaze-holding nystagmus, Vertical [2, 18]: 0.1 °/s
- Slow phase velocity of the gaze-holding nystagmus, Horizontal [2, 19]: −4.2 °/s
- Slow phase velocity of the gaze-holding nystagmus, Vertical [2, 19]: 1.7 °/s
- PATA Word Test ([2]; ataxia telangiectasia Patient 3, after slightly over 7 months, before 14): 10
- Visual analog scale (as evaluated by the patient) ([2]; ataxia telangiectasia Patient 3, after slightly over 7 months, before 80): 80
- 9-Hole Pegboard Test Dominant (9HPTD) (right) ([2]; ataxia telangiectasia Patient 3, after slightly over 7 months, before 150 s): 124.5 s
- 9-Hole Pegboard Test Non-Dominant (9HPTND) ([2]; ataxia telangiectasia Patient 3, after slightly over 7 months, before 161.6 s): 147.5 s
- Mean 8-meters Walking Test (8 MW) [2, 20]: not able to perform
- Patient's and parent's report [2, 20]: improvement in handwriting
- Video-oculography (summary) [2, 20]: general improvement of fixation stability and decrease of intensity of spontaneous and gaze-holding nystagmus at all positions
